This note sets out measurements from ChEMBL document CHEMBL1158549, “Synthesis and evaluation of a series of C5'-substituted duocarmycin SA analogs” (Bioorg Med Chem Lett, 2010).

pIC50: −log10 of the molar value.

This test concerns L1210. The test can be described thus: Cytotoxicity against mouse L1210 cells. It is filed as functional, cell-based.
What is called pIC50 is −log10 of the IC50, conventionally taken in molar units. `COC(=O)c1cc2c3c(cc(O)c2[nH]1)N(C(=O)c1cc2cc(OC(F)(F)F)ccc2[nH]1)C[C@H]3CCl` showed a negative-log IC50 (pIC50) of 10.07.

The molecule `COC(=O)c1cc2c([nH]1)C(=O)C=C1N(C(=O)c3cc4cc(O)ccc4[nH]3)C[C@H]3C[C@]123` gave a pIC50 of 10.28.

As for `COC(=O)c1ccc2[nH]c(C(=O)N3C[C@@H](CCl)c4c3cc(O)c3[nH]c(C(=O)OC)cc43)cc2c1`, the pIC50 is 10.32.

In the case of `COC(=O)c1cc2c([nH]1)C(=O)C=C1N(C(=O)c3cc4cc(C#N)ccc4[nH]3)C[C@H]3C[C@]123`, the negative logarithm of the IC50 (pIC50) is 11.15. Against the preceding molecule, the pIC50 is 0.83 log units higher.

In the case of `COC(=O)c1cc2c3c(cc(O)c2[nH]1)N(C(=O)c1cc2cc(C)ccc2[nH]1)C[C@H]3CCl`, the negative logarithm of the IC50 (pIC50) is 10.11.

`COC(=O)c1cc2c3c(cc(O)c2[nH]1)N(C(=O)c1cc2cc(O)ccc2[nH]1)C[C@H]3CCl` showed a pIC50 of 10.30. The pIC50 values of the last two molecules are within 0.2 log units of each other.

Take `COC(=O)c1cc2c3c(cc(O)c2[nH]1)N(C(=O)c1cc2cc(F)ccc2[nH]1)C[C@H]3CCl`: the negative logarithm of the IC50 (pIC50) was 10.10. This pIC50 is 0.20 log units lower than that of the molecule before.

The molecule `COC(=O)c1cc2c([nH]1)C(=O)C=C1N(C(=O)c3cc4cc(C(F)(F)F)ccc4[nH]3)C[C@H]3C[C@]123` gave a pIC50 of 10.19.

The molecule `COC(=O)c1ccc2[nH]c(C(=O)N3C[C@H]4C[C@@]45C3=CC(=O)c3[nH]c(C(=O)OC)cc35)cc2c1` gave a negative logarithm of the IC50 (pIC50) of 10.33.

`CNC(=O)c1ccc2[nH]c(C(=O)N3C[C@@H](CCl)c4c3cc(O)c3[nH]c(C(=O)OC)cc43)cc2c1` had a negative-log IC50 (pIC50) of 10.21.

`COC(=O)c1cc2c([nH]1)C(=O)C=C1N(C(=O)c3cc4cc(OC(F)(F)F)ccc4[nH]3)C[C@H]3C[C@]123` had a negative-log IC50 (pIC50) of 10.31.

In turn, `COC(=O)c1cc2c([nH]1)C(=O)C=C1N(C(=O)c3cc4cc(S(C)(=O)=O)ccc4[nH]3)C[C@H]3C[C@]123` gave a negative-log IC50 (pIC50) of 10.24. This pIC50 and that of the molecule before are within 0.2 log units of each other.

As to `COC(=O)c1cc2c([nH]1)C(=O)C=C1N(C(=O)c3cc4cc(NC(C)=O)ccc4[nH]3)C[C@H]3C[C@]123`, the pIC50 is 10.08. The pIC50 values of the last two molecules are within 0.2 log units of each other.

As for `COC(=O)c1cc2c3c(cc(O)c2[nH]1)N(C(=O)c1cc2cc(C#N)ccc2[nH]1)C[C@H]3CCl`, the negative logarithm of the IC50 (pIC50) was 11.05. This pIC50 is 0.97 log units higher than that of the molecule before.

Molecule `COC(=O)c1cc2c([nH]1)C(=O)C=C1N(C(=O)c3cc4cc(OC)c(OC)c(OC)c4[nH]3)C[C@H]3C[C@]123` [DUOCARMYCIN] gave a negative-log IC50 (pIC50) of 11.22.

In the case of `COC(=O)c1cc2c3c(cc(O)c2[nH]1)N(C(=O)c1cc2cc(C(F)(F)F)ccc2[nH]1)C[C@H]3CCl`, the pIC50 was 10.12.

Regarding `COC(=O)c1cc2c3c(cc(O)c2[nH]1)N(C(=O)c1cc2ccccc2[nH]1)C[C@H]3CCl`, the negative-log IC50 (pIC50) is 10.14.

As for `COC(=O)c1cc2c([nH]1)C(=O)C=C1N(C(=O)c3cc4cc(O)c(OC)cc4[nH]3)C[C@H]3C[C@]123`, the pIC50 was 10.48.

Take `COC(=O)c1cc2c([nH]1)C(=O)C=C1N(C(=O)c3cc4cc(OC)c(O)cc4[nH]3)C[C@H]3C[C@]123`: the negative logarithm of the IC50 (pIC50) was 11.15.

The molecule `COC(=O)c1cc2c3c(cc(O)c2[nH]1)N(C(=O)c1cc2cc(NC(C)=O)ccc2[nH]1)C[C@H]3CCl` showed a pIC50 of 10.09.

`COC(=O)c1cc2c3c(cc(O)c2[nH]1)N(C(=O)c1cc2cc(OC)ccc2[nH]1)C[C@H]3CCl` had a pIC50 of 10.68. This pIC50 lies 0.59 log units higher than the previous one.

`COC(=O)c1cc2c3c(cc(O)c2[nH]1)N(C(=O)c1cc2cc(C(C)=O)ccc2[nH]1)C[C@H]3CCl` showed a pIC50 of 10.42.

`COC(=O)c1cc2c([nH]1)C(=O)C=C1N(C(=O)c3cc4ccccc4[nH]3)C[C@H]3C[C@]123` had a pIC50 of 10.17.

As for `COC(=O)c1cc2c([nH]1)C(=O)C=C1N(C(=O)c3cc4cc(C)ccc4[nH]3)C[C@H]3C[C@]123`, the negative-log IC50 (pIC50) was 10.11.

As for `COC(=O)c1cc2c3c(cc(O)c2[nH]1)N(C(=O)c1cc2cc(S(C)(=O)=O)ccc2[nH]1)C[C@H]3CCl`, the negative logarithm of the IC50 (pIC50) is 10.24.

`COC(=O)c1cc2c([nH]1)C(=O)C=C1N(C(=O)c3cc4cc(F)ccc4[nH]3)C[C@H]3C[C@]123` had a pIC50 of 10.27.

`COC(=O)c1cc2c([nH]1)C(=O)C=C1N(C(=O)c3cc4cc(C(C)=O)ccc4[nH]3)C[C@H]3C[C@]123`: the pIC50 is 10.37. This pIC50 and that of the molecule before are within 0.2 log units of each other.

Molecule `COC(=O)c1cc2c([nH]1)C(=O)C=C1N(C(=O)c3cc4cc(OC)ccc4[nH]3)C[C@H]3C[C@]123` had a negative logarithm of the IC50 (pIC50) of 11.12. This pIC50 lies 0.75 log units higher than the previous one.

With `CNC(=O)c1ccc2[nH]c(C(=O)N3C[C@H]4C[C@@]45C3=CC(=O)c3[nH]c(C(=O)OC)cc35)cc2c1`, the pIC50 was 10.15.

Regarding `COC(=O)c1cc2c([nH]1)C(=O)C=C1N(C(=O)c3cc4cc([N+](=O)[O-])ccc4[nH]3)C[C@H]3C[C@]123`, the negative logarithm of the IC50 (pIC50) is 10.39.
